Experimental data: US11753407B2, “Compounds for treating spinal muscular atrophy” (PTC Therapeutics, Inc., priority 2012, dated 2023)

How the values were obtained:
[1] = test system: Smn protein in SMA patient fibroblast cells (GM03813); test: Smn protein assay in cultured cells (SMN HTRF); assay type: cell-based, human; conditions: SMA patient fibroblast cells, 48 hours; for EC1.5x for Smn protein expression: 7-point concentration curve, SMN HTRF, concentration producing 1.5 times Smn protein vs DMSO vehicle control; for maximum fold (Fold) increase of Smn protein: 7-point concentration data, fold relative to vehicle control
Description: The SMN HTRF (homogeneous time resolved fluorescence) assay is used to quantify the level of Smn protein in SMA patient fibroblast cells treated with test compounds.
Protocol. Cells are thawed and cultured in DMEM-10% FBS for 72 hours. Cells are trypsinized, counted and re-suspended to a concentration of 25,000 cells/mL in DMEM-10% FBS. The cell suspension is plated at 5,000 cells per well in a 96 well microtiter plate and incubated for 3 to 5 hours. […] Test compounds are serially diluted 3.16-fold in 100% DMSO to generate a 7-point concentration curve. 1 μL of test compound solution is transferred to cell-containing wells and cells are incubated for 48 hours in a cell culture incubator (37° C., 5% CO2, 100% relative humidity). Triplicate samples are set up for each test compound concentration. After 48 hours, the supernatant is removed from the wells and 25 μL of the RIPA lysis buffer, containing protease inhibitors, is added to the wells and incubated with shaking at room temperature for 1 hour. 25 μL of the diluent is added and then 35 μL of the resulting lysate is transferred to a 384-well plate, where each well contains 5 μL of the antibody solution (1:100 dilution of anti-SMN d2 and anti-SMN kryptate in SMN reconstitution buffer). The plate is centrifuged for 1 minute to bring the solution to the bottom of the wells, then incubated overnight at room temperature. Fluorescence for each well of the plate at 665 nm and 620 nm is measured on an EnVision multilabel plate reader (Perkin-Elmer).
The normalized fluorescence signal is calculated for each sample, Blank and vehicle control well by dividing the signal at 665 nm by the signal at 620 nm. Normalizing the signal accounts for possible fluorescence quenching due to the matrix effect of the lysate. The ΔF value (a measurement of Smn protein abundance as a percent value) for each sample well is calculated by subtracting the normalized average fluorescence for the Blank control wells from the normalized fluorescence for each sample well, then dividing this difference by the normalized average fluorescence for the Blank control wells and multiplying the resulting value by 100. The ΔF value for each sample well represents the Smn protein abundance from test compound-treated samples. The ΔF value for each sample well is divided by the ΔF value for the vehicle control wells to calculate the fold increase in Smn protein abundance relative to the vehicle control.
For compounds of Formula (I) or a form thereof disclosed herein, Table 9 provides the EC1.5× for Smn protein expression that was obtained from the 7-point concentration data generated for each test compound according to the procedure of Biological Example 7. The term “EC1.5× for Smn protein expression” is defined as that concentration of test compound that is effective in producing 1.5 times the amount of Smn protein in an SMA patient fibroblast cell compared to the amount produced from the DMSO vehicle control. An EC1.5× for Smn protein expression between >3 μM and ≤10 μM is indicated by one star (*), an EC1.5× between >1 μM and ≤3 μM is indicated by two stars (**), an EC1.5× between >0.3 μM and ≤1 μM is indicated by three stars (***) and an EC1.5x≤0.3 μM is indicated by four stars (****).
For compounds of Formula (I) or a form thereof disclosed herein, Table 10 provides the maximum fold (Fold) increase of Smn protein that was obtained from the 7-point concentration data generated for each test compound according to the procedure of Biological Example 7. A maximum fold increase of ≤1.2 is indicated by one star (*), a fold increase between >1.2 and ≤1.35 is indicated by two stars (**), a fold increase between >1.35 and ≤1.5 is indicated by three stars (***), a fold increase between >1.5 and ≤1.65 is indicated by four stars (****) and a fold increase >1.65 is indicated by five stars (*****).

[2] = test system: SMN2 minigene mRNA (SMN2-A minigene) in HEK293H cells; test: SMN2 minigene mRNA splicing RT-qPCR assay in cultured cells; assay type: cell-based, human; conditions: Homo sapiens, HEK293-H; concentration increasing full length SMN2 mRNA 1.5-fold relative to vehicle-treated cells; HEK293H cells with SMN2-A minigene, 24 hours, 7-point concentration data; read-out: EC1.5x for production of full length SMN2 mRNA
Description: The reverse transcription-quantitative PCR-based (RT-qPCR) assay is used to quantify the level of the full length SMN2 minigene mRNA containing SMN2 exon 7 in a HEK293H cell line stably transfected with said minigene and treated with a test compound.
Protocol. HEK293H cells stably transfected with the SMN2-A minigene construct described above (10,000 cells/well) are seeded in 200 μL of cell culture medium (DMEM plus 10% FBS, with 200 μg/mL hygromycin) in 96-well flat-bottom plates and the plate is immediately swirled to ensure proper dispersal of cells, forming an even monolayer of cells. Cells are allowed to attach for at least 4-6 hours. Test compounds are serially diluted 3.16-fold in 100% DMSO to generate a 7-point concentration curve. A solution of test compound (1 μL, 200× in DMSO) is added to each cell-containing well and the plate is incubated for 24 hours in a cell culture incubator (37° C., 5% CO2, 100% relative humidity). 2 replicates are prepared for each test compound concentration. The cells are then lysed in Cells-To-Ct lysis buffer and the lysate is stored at −80° C.
Primer SMN Forward A (SEQ ID NO. 1) hybridizes to a nucleotide sequence in exon 7 (nucleotide 22 to nucleotide 40), primer SMN Reverse A (SEQ ID NO. 2) hybridizes to a nucleotide sequence in the coding sequence of Firefly luciferase, SMN Probe A (SEQ ID NO. 3) hybridizes to a nucleotide sequence in exon 7 (nucleotide 50 to nucleotide 54) and exon 8 (nucleotide 1 to nucleotide 21). The combination of these three oligonucleotides detects only SMN1 or SMN2 minigenes (RT-qPCR) and will not detect endogenous SMN1 or SMN2 genes.
The SMN forward and reverse primers are used at final concentrations of 0.4 μM. The SMN probe is used at a final concentration of 0.15 μM. The GAPDH primers are used at final concentrations of 0.2 μM and the probe at 0.15 μM.
The SMN2-minigene GAPDH mix (15 μL total volume) is prepared by combining 7.5 μL of 2× RT-PCR buffer, 0.4 μL of 25× RT-PCR enzyme mix, 0.75 μL of 20× GAPDH primer-probe mix, 4.0075 μL of water, 2 μL of 10-fold diluted cell lysate, 0.06 μL of 100 μM SMN forward primer, 0.06 μL of 100 μM SMN reverse primer, and […].
PCR is carried out at the following temperatures for the indicated time: Step 1: 48° C. (15 min); Step 2: 95° C. (10 min); Step 3: 95° C. (15 sec); Step 4: 60° C. (1 min); then repeat Steps 3 and 4 for a total of 40 cycles.
Each reaction mixture contains both SMN2-A minigene and GAPDH primers/probe sets (multiplex design), allowing simultaneous measurement of the levels of two transcripts.
Two SMN spliced products are generated from the SMN2 minigene. The first spliced product containing exon 7, corresponding to full length SMN2 mRNA, is referred to herein using the term “SMN2 minigene FL.” The second spliced product lacking exon 7 is referred to herein using the term “SMN2 minigene Δ7.”
The increase of SMN2 minigene FL mRNA relative to that in cells treated with vehicle control is determined from real-time PCR data using a modified ΔΔCt method (as described in Livak and Schmittgen, Methods, 2001, 25:402-8). The amplification efficiency (E) is calculated from the slope of the amplification curve for SMN2 minigene FL and GAPDH individually. The abundances of SMN2 minigene FL and GAPDH are then calculated as (1+E)^−Ct, where Ct is the threshold value for each amplicon. The abundance of SMN2 minigene FL is normalized to GAPDH abundance. The normalized SMN2 minigene FL abundance from test compound-treated samples is then divided by normalized SMN2 minigene FL abundance from vehicle-treated cells to determine the level of SMN2 FL mRNA relative to vehicle control.
For compounds of Formula (I) or a form thereof disclosed herein, Table 4 provides the […] for production of full length SMN2 mRNA that was obtained from the 7-point concentration data generated for each test compound according to the procedure of Biological Example 2. […]

| Structure (SMILES) | EC1.5x for Smn protein expression [1] | maximum fold (Fold) increase of Smn protein [1] | EC (1.5-fold increase) [2] |
| --- | --- | --- | --- |
| Cc1nc2ccc(-c3cc(=O)n4cc(N5CCC(N)CC5)ccc4n3)cc2o1 [Compound 242, 7-(4-aminopiperidin-1-yl)-2-(2-methyl-1,3-benzoxazol-6-yl)-4H-pyrido[1,2-a]pyrimidin-4-one] | **** (an EC1.5x≤0.3 μM is indicated by four stars (****)) | **** (a fold increase between >1.5 and ≤1.65 is indicated by four stars (****)) | < 0.1 µM |
| Cc1nc2ccc(-c3cc(=O)n4cc(N5C[C@H]6CNC[C@H]6C5)ccc4n3)cc2o1 [Compound 243, 7-[(3aR,6aS)-hexahydropyrrolo[3,4-c]pyrrol-2(1H)-yl]-2-(2-methyl-1,3-benzoxazol-6-yl)-4H-pyrido[1,2-a]pyrimidin-4-one] | **** (an EC1.5x≤0.3 μM is indicated by four stars (****)) | **** (a fold increase between >1.5 and ≤1.65 is indicated by four stars (****)) | < 0.1 µM |
| Cc1cn2cc(-c3cc(=O)n4cc(N5CCN(C)CC5)ccc4n3)cc(F)c2n1 [Compound 269, 2-(8-fluoro-2-methylimidazo[1,2-a]pyridin-6-yl)-7-(4-methylpiperazin-1-yl)-4H-pyrido[1,2-a]pyrimidin-4-one] | **** (an EC1.5x≤0.3 μM is indicated by four stars (****)) | ***** (a fold increase >1.65 is indicated by five stars (*****)) | < 0.1 µM |
| Cc1cn2cc(-c3cc(=O)n4cc(N5CCN[C@H](C)C5)ccc4n3)cc(F)c2n1 [Compound 270, 2-(8-fluoro-2-methylimidazo[1,2-a]pyridin-6-yl)-7-[(3R)-3-methylpiperazin-1-yl]-4H-pyrido[1,2-a]pyrimidin-4-one] | **** (an EC1.5x≤0.3 μM is indicated by four stars (****)) | **** (a fold increase between >1.5 and ≤1.65 is indicated by four stars (****)) | < 0.1 µM |
| Cc1cn2cc(-c3cc(=O)n4cc(N5CCC(N)CC5)ccc4n3)cc(F)c2n1 [Compound 273, 7-(4-aminopiperidin-1-yl)-2-(8-fluoro-2-methylimidazo[1,2-a]pyridin-6-yl)-4H-pyrido[1,2-a]pyrimidin-4-one] | **** (an EC1.5x≤0.3 μM is indicated by four stars (****)) | ***** (a fold increase >1.65 is indicated by five stars (*****)) | < 0.1 µM |
| Cc1nc2ccc(-c3cc(=O)n4cc(N5CCC(N(C)C)CC5)ccc4n3)cc2s1 [Compound 285, 7-[4-(dimethylamino)piperidin-1-yl]-2-(2-methyl-1,3-benzothiazol-6-yl)-4H-pyrido[1,2-a]pyrimidin-4-one] | **** (an EC1.5x≤0.3 μM is indicated by four stars (****)) | ***** (a fold increase >1.65 is indicated by five stars (*****)) | < 0.1 µM |
| Cc1nc2ccc(-c3cc(=O)n4cc(C5=CCNCC5)ccc4n3)cc2o1 [Compound 302, 2-(2-methyl-1,3-benzoxazol-6-yl)-7-(1,2,3,6-tetrahydropyridin-4-yl)-4H-pyrido[1,2-a]pyrimidin-4-one] | **** (an EC1.5x≤0.3 μM is indicated by four stars (****)) | ***** (a fold increase >1.65 is indicated by five stars (*****)) | < 0.1 µM |
| Cc1nc2c(F)cc(-c3cc(=O)n4cc(N5CCN(C)CC5)ccc4n3)cc2o1 [Compound 308, 2-(4-fluoro-2-methyl-1,3-benzoxazol-6-yl)-7-(4-methylpiperazin-1-yl)-4H-pyrido[1,2-a]pyrimidin-4-one] | **** (an EC1.5x≤0.3 μM is indicated by four stars (****)) | ***** (a fold increase >1.65 is indicated by five stars (*****)) | < 0.1 µM |
| COc1ccc(-c2cc(=O)n3cc(C4C[C@H]5CC[C@@H](C4)N5C)ccc3n2)cc1OC (stereo partly drawn) [Compound 320, 2-(3,4-dimethoxyphenyl)-7-[(1R,5S)-8-methyl-8-azabicyclo[3.2.1]oct-3-yl]-4H-pyrido[1,2-a]pyrimidin-4-one] | ** (an EC1.5× between >1 μM and ≤3 μM is indicated by two stars (**)) | **** (a fold increase between >1.5 and ≤1.65 is indicated by four stars (****)) | 0.3 to 1 µM |
